The text below walks through data of ChEMBL document CHEMBL1201862, “PubChem BioAssay data set” (2004).

SMILES strings stand for the structures. Activity calls are given as the source filed them. Bounds are passed on as bounds.

Assay type in all cases: functional
The target in test [1] is Intestinal-type alkaline phosphatase (Homo sapiens, UniProt P09923). Briefly: human intestinal alkaline phosphatase activators, dose response, biochemical, luminescence, uHTS hits (AID 463120).
Test [2] has as its target Ion channel NompC (Danio rerio, UniProt Q7T1G6). Description: Dose response cell-based high-throughput screening assay for agonists of the transient receptor potential channel N1 (TRPN1). [Related pubchem assays (depositor defined):AID1424, AID1448].
Test [3] concerns the target Mucolipin-3 (Homo sapiens, UniProt Q8TDD5). Description: Fluorescence counterscreen assay for […] agonists: dose response cell-based high-throughput screening assay to identify agonists of the transient receptor potential channel ML3 (TRPML3). [Related pubchem assays: 1424, 1448 ].
Test [4] addresses T1, Cannabinoid receptor 1 (Homo sapiens, UniProt P21554). Briefly: SAR analysis of antagonists of the Cannabinoid Receptor 1 using an Image-Based Assay - Set 4. [Related pubchem assays (depositor defined):AID2013, AID2026].
The target of test [5] is T2, G-protein coupled receptor 35 (Homo sapiens, UniProt Q9HC97). Description: SAR analysis of Agonists of the GPR35 Receptor using an Image-Based Assay - Set 4. [Related pubchem assays (depositor defined):AID2013, AID2026].
Test [6] concerns the target T1, Cannabinoid receptor 1. Briefly: SAR analysis of agonists of the Cannabinoid Receptor 1 using an Image-Based Assay - Set 4. [Related pubchem assays (depositor defined):AID2013, AID2026].
In test [7] the target is T3, Cannabinoid receptor 2 (Homo sapiens, UniProt P34972). Briefly: SAR analysis of agonists of the Cannabinoid Receptor 2 using an Image-Based Assay - Set 3. [Related pubchem assays (depositor defined):AID2013, AID2026].
The target of test [8] is T4, G-protein coupled receptor 55 (Homo sapiens, UniProt Q9Y2T6). Description: SAR Analysis of Selective Antagonists of GPR55 using an Image-Based Assay - Set 4. [Related pubchem assays (depositor defined):AID2013, AID2026].
The target of test [9] is T2, G-protein coupled receptor 35. Briefly: SAR analysis of Antagonists of the GPR35 Receptor using an Image-Based Assay - Set 6. [Related pubchem assays (depositor defined):AID2013, AID2026].
In test [10] the target is T3, Cannabinoid receptor 2. Briefly: SAR analysis of antagonists of the Cannabinoid Receptor 2 using an Image-Based Assay - Set 3. [Related pubchem assays (depositor defined):AID2013, AID2026].
The target in test [11] is T5, Kappa-type opioid receptor (Homo sapiens, UniProt P41145). Description: SAR analysis of small molecule antagonists of the kappa opioid receptor via a luminescent beta-arrestin assay - Set 5. [Related pubchem assays (depositor defined):AID1778, AID1785].
In test [12] the target is T5, Kappa-type opioid receptor. Description: SAR analysis of small molecule antagonists of the kappa opioid receptor via a luminescent beta-arrestin assay - Set 4. [Related pubchem assays (depositor defined):AID1777, AID1778, AID1785, AID1786, AID1966, AID2133, AID2136, AID2285].
Test [13] addresses T3, Cannabinoid receptor 2. Briefly: SAR analysis of antagonists of the Cannabinoid Receptor 2 using an Image-Based Assay. [Related pubchem assays (depositor defined):AID2013, AID2026].
Test [14] deals with T3, Cannabinoid receptor 2. Description: SAR analysis of agonists of the Cannabinoid Receptor 2 using an Image-Based Assay. [Related pubchem assays (depositor defined):AID2013, AID2026].
In test [15] the target is T1, Cannabinoid receptor 1. Description: SAR analysis of antagonists of the Cannabinoid Receptor 1 using an Image-Based Assay - Set 2. [Related pubchem assays (depositor defined):AID2013, AID2026].
For test [16], the target named is T2, G-protein coupled receptor 35. Description: SAR analysis of Agonists of the GPR35 Receptor using an Image-Based Assay - Set 2. [Related pubchem assays (depositor defined):AID2013, AID2026].
Test [17] concerns the target T1, Cannabinoid receptor 1. Briefly: SAR analysis of agonists of the Cannabinoid Receptor 1 using an Image-Based Assay - Set 2. [Related pubchem assays (depositor defined):AID2013, AID2026].
Test [18] addresses T4, G-protein coupled receptor 55. Description: blockade of LPI-induced GPR55 arrestin translocation – imaging, U2OS, beta-arrestin-GFP, LPI agonist, set 2, SAR follow-up (AID 2820).
Test [19] shares this target. Description: inhibition of LPI-stimulated GPR55 beta-arrestin translocation – imaging, U2OS, beta-arrestin-GFP, LPI agonist, primary screen (AID 2013).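 Further: antagonist potency measured as reduced agonist-driven arrestin aggregation.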
Test [20] addresses T2, G-protein coupled receptor 35. Description: SAR analysis of Antagonists of the GPR35 Receptor using an Image-Based Assay - Set 3. [Related pubchem assays (depositor defined):AID2013, AID2026].

T1 sequence (P21554 whole entry): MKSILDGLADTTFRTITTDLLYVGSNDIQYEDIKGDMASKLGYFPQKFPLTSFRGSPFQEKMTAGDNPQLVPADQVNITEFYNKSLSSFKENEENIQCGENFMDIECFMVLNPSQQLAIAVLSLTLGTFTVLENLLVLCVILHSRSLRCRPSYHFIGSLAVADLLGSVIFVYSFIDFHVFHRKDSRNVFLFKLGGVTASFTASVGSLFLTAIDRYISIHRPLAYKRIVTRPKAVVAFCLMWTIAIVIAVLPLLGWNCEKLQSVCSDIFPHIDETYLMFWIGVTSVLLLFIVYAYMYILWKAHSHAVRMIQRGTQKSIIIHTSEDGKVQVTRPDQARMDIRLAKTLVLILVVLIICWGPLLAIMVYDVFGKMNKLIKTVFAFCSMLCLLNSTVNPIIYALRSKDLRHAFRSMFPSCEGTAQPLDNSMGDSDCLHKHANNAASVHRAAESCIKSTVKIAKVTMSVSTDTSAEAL
T2 sequence (Q9HC97 whole entry): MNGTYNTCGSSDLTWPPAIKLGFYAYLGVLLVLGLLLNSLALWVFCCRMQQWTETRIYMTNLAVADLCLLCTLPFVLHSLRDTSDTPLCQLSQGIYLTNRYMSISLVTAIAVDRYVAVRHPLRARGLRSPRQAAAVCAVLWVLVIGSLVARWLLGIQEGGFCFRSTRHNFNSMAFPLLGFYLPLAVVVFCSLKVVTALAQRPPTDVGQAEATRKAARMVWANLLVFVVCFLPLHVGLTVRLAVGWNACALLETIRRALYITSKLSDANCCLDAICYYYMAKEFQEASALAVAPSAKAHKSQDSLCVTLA
T3 sequence (P34972 whole entry): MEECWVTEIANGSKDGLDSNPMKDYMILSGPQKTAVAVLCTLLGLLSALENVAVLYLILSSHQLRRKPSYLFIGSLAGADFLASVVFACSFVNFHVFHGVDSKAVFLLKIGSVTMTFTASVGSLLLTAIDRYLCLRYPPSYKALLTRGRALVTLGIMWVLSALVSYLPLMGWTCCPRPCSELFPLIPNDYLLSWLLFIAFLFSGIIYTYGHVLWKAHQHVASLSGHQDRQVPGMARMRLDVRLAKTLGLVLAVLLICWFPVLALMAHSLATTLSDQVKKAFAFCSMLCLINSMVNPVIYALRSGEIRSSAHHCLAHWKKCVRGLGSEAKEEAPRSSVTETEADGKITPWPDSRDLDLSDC
T4 sequence (Q9Y2T6 whole entry): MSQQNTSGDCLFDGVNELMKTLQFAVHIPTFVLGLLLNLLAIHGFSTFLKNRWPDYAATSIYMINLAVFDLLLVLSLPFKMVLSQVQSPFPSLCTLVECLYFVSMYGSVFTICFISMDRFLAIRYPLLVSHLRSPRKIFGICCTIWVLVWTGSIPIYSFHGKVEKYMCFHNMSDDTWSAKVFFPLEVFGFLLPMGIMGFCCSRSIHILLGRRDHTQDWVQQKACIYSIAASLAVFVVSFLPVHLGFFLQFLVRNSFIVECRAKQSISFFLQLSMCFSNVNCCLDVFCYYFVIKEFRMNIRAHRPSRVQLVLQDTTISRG
T5 sequence (P41145 whole entry): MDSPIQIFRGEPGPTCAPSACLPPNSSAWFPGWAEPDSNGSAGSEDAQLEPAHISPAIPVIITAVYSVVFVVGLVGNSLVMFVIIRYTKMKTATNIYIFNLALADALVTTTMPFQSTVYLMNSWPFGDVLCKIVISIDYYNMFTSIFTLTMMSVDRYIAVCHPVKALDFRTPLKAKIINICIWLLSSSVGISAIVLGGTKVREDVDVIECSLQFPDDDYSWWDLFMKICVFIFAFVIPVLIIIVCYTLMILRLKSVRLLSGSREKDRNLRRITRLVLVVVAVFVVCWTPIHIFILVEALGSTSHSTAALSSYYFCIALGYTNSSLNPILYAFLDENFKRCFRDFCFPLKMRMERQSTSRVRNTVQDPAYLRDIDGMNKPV
Sequence of Mucolipin-3 (Q8TDD5 whole entry): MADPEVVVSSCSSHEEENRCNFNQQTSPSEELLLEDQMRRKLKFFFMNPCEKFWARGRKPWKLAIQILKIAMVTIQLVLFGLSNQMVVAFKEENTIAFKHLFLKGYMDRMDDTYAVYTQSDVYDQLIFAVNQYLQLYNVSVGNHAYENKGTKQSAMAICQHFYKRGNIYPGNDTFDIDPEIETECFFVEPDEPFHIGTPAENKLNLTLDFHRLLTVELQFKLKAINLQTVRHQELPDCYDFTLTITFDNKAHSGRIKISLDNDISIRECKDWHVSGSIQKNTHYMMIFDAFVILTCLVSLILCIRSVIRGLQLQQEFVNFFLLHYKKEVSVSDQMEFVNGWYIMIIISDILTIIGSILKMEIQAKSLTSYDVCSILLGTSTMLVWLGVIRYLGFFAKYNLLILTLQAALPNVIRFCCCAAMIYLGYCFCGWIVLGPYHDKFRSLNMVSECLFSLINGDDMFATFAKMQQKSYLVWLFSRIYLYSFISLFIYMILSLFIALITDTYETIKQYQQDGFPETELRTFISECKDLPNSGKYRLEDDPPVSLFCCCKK
Sequence of Ion channel NompC (Q7T1G6 whole entry): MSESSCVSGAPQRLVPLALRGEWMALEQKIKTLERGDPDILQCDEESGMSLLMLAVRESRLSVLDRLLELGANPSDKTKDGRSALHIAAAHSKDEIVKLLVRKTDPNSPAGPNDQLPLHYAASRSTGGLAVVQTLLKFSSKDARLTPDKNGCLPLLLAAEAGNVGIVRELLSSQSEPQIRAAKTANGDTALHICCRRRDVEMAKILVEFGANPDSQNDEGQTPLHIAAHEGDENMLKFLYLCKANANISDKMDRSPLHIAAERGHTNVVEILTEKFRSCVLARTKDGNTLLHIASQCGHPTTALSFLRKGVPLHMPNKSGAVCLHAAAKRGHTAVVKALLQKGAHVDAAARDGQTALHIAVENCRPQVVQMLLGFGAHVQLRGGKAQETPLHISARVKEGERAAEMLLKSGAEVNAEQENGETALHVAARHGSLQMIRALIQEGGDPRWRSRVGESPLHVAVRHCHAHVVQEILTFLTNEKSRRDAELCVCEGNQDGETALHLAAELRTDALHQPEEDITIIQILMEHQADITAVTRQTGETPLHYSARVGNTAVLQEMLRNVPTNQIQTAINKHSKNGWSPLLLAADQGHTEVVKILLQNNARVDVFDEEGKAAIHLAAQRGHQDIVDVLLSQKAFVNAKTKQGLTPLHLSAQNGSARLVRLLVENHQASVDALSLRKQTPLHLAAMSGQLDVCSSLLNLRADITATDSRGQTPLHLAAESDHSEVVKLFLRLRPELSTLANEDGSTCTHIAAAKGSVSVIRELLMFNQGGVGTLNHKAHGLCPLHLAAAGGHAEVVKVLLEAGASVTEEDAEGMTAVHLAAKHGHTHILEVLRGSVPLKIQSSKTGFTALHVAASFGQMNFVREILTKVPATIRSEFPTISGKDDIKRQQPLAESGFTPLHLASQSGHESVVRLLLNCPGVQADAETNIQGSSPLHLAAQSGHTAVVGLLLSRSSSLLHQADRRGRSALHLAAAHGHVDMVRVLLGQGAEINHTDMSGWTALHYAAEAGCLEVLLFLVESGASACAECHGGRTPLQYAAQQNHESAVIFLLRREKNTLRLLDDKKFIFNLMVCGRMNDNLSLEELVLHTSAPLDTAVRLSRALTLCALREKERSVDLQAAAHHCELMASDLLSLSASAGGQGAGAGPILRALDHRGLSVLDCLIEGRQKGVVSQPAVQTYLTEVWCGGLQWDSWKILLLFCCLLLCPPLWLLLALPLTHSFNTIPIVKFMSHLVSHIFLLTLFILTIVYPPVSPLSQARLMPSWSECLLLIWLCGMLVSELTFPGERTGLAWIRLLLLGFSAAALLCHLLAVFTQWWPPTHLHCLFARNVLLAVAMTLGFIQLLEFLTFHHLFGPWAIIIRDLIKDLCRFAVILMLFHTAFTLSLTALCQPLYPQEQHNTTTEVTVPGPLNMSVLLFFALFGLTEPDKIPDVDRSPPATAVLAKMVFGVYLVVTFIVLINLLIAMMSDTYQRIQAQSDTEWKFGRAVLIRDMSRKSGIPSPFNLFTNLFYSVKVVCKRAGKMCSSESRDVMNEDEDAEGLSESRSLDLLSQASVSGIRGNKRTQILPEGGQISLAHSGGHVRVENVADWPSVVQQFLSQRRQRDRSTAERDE
Sequence of Intestinal-type alkaline phosphatase (P09923 whole entry): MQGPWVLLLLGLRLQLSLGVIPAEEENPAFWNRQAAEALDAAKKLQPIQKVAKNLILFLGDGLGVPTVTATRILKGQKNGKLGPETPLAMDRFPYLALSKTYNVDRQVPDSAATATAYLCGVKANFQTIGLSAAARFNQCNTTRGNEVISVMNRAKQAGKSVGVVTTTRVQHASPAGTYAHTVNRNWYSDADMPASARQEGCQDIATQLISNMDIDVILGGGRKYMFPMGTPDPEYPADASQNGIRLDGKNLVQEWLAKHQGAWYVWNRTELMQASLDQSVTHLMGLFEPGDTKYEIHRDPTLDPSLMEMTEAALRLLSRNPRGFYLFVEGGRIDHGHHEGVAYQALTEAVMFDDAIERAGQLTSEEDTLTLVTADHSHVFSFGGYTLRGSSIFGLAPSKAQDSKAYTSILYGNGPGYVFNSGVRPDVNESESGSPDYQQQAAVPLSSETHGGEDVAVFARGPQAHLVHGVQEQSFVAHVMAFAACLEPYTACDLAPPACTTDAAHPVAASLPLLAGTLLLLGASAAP

On to `Cc1cc(C)c2nc(SCC(=O)NNC(=O)c3ccco3)c(C)cc2c1`, for which the EC50 (as a rule, the concentration giving half of the maximal effect) in test [1] was 12.7 µM (active).
For the compound `CCN1CCN(CCNC(=O)c2cn(Cc3ccccc3F)nn2)CC1`, the values for the EC50 in test [2] and in test [3] were > 29.9 µM (inactive) and > 29.9 µM (not active), respectively.
On to `CCNC(=O)c1cc2c(=O)n3ccccc3nc2n(C2CCCC2)c1=N`, for which the IC50 (commonly the concentration that inhibits the measured activity by half) in [4] is > 32 µM (inactive); in [8], 29.7 µM (inactive); in [9] it was > 32 µM (inactive); in test [10] it was > 32 µM (inactive). Also, the EC50 in [5] is > 32 µM (inactive); in test [6], > 32 µM (inactive); in [7], 3.01 µM (active).
As for `Cc1ccccc1S(=O)(=O)NCc1ccc(C(=O)NCCN(Cc2ccccc2)C(C)C)cc1`, the IC50 is 2.34 µM (active) in [11] and 2.49 µM (active) in test [12].
Regarding `CCCCC1(Cc2ccc(OC)c([N+](=O)[O-])c2)C(=O)N(c2ccccc2)N(c2ccccc2)C1=O`, the IC50 in test [13] is > 32 µM (inactive); in test [15], > 32 µM (inactive); in test [18], 1.81 µM (active); in [19], 3.42 µM (active); in [20] it was > 32 µM (inactive). Further, the EC50 in test [14], in [16] and in test [17] was > 32 µM (inactive) in each case.
